Patent US20260325540A1 (priority 2023, published 2026)

What follows are molecules tested against SARS-CoV-2 3CLpro (Severe acute respiratory syndrome coronavirus 2, UniProt P0DTD1) (assay: FRET based protease assay, SARS-CoV-2 3CL). Conditions: not given.
Type: biochemical, SARS-CoV-2 (strain BetaCoV/Wuhan/WIV04/2019)

Structure (SMILES) | IC50 [µM]
CC(C)C[C@@H]1NC(=O)[C@@H](Cc2ccccc2)CCCC[C@H]2CNC(=O)[C@@H]2C[C@@H](C=O)NC1=O [Example 37] | < 0.1
CC(C)C[C@@H]1NC(=O)CCCC[C@H]2CNC(=O)[C@H]2C[C@@H](C=O)NC1=O [Example 2] | 1 to 20
CC1(C)[C@@H]2[C@H]3C(=O)N[C@H](C#N)C[C@@H]4C(=O)NC[C@@H]4CCCC[C@H](NC(=O)c4cc(C(F)(F)F)on4)C(=O)N3C[C@@H]21 [Example 153] | < 0.1
CC(C)(C)OC(=O)N[C@H]1CC/C=C\[C@H]2CCNC(=O)[C@H]2C[C@@H](C#N)NC(=O)[C@@H]2[C@@H]3[C@H](CN2C1=O)C3(C)C [Example 114] | < 0.1
CC1(C)[C@@H]2[C@H]3C(=O)N[C@H](C#N)C[C@@H]4C(=O)NC[C@@H]4CCCC[C@H](NC(=O)c4cc(Cl)ccc4Cl)C(=O)N3C[C@@H]21 [Example 133] | < 0.1
CC(C)(C)OC(=O)N[C@H]1COCCC[C@H]2CNC(=O)[C@H]2C[C@@H](C#N)NC(=O)[C@@H]2[C@@H]3[C@H](CN2C1=O)C3(C)C [Example 102] | < 0.1
CC(C)(C)OC(=O)N[C@H]1CCC[C@H]2CNC(=O)[C@H]2C[C@@H](C#N)NC(=O)[C@@H]2[C@@H]3[C@H](CN2C(=O)C1)C3(C)C [Example 125] | 1 to 20
Cc1nc(C(=O)N[C@H]2CCCC[C@H]3CNC(=O)[C@H]3C[C@@H](C#N)NC(=O)[C@@H]3[C@@H]4[C@H](CN3C2=O)C4(C)C)cs1 [Example 113] | 0.1 to 1
CC(C)C[C@@H]1NC(=O)[C@@H](NC(=O)OC(C)(C)C)CCC[C@H]2CNC(=O)[C@H]2C[C@@H](C=O)NC1=O [Example 15] | 0.1 to 1
CC1(C)[C@@H]2[C@H]3C(=O)N[C@H](C#N)C[C@@H]4C(=O)NC[C@@H]4CCCC[C@H](NC(=O)C45CC(C(F)(F)F)(C4)C5)C(=O)N3C[C@@H]21 [Example 119] | < 0.1
CC1(C)C[C@H]2C(=O)N[C@H](C#N)C[C@@H]3C(=O)NC[C@@H]3CCCC[C@H](NC(=O)OC(C)(C)C)C(=O)N2C1 [Example 130] | 0.1 to 1
CC1(C)[C@@H]2[C@H]3C(=O)N[C@H](C#N)C[C@@H]4C(=O)NC[C@@H]4CCCC[C@H](NC(=O)OC4(C(F)(F)F)CCC4)C(=O)N3C[C@@H]21 [Example 152] | < 0.1
CC(C)C[C@@H]1NC(=O)CCCCC[C@H]2CCNC(=O)[C@@H]2C[C@@H](C=O)NC1=O [Example 34] | 0.1 to 1
CC(C)(C)C(=O)N[C@H]1C/C=C/[C@H]2CNC(=O)[C@H]2C[C@@H](C#N)NC(=O)[C@@H]2[C@@H]3[C@H](CN2C1=O)C3(C)C [Example 63] | < 0.1
CC1(C)[C@@H]2[C@H]3C(=O)N[C@H](C#N)C[C@@H]4C(=O)NC[C@@H]4CCCC[C@H](NC(=O)CC4CCCC4)C(=O)N3C[C@@H]21 [Example 90] | < 0.1
CC(C)C[C@@H]1NC(=O)[C@@H](OC(C)(C)C)CCC[C@H]2CNC(=O)[C@@H]2C[C@@H](C=O)NC1=O [Example 20] | 1 to 20
CC(C)C[C@@H]1NC(=O)[C@@H](Cc2ccccc2)CCCCC[C@@H]2CNC(=O)[C@@H]2C[C@@H](C#N)NC1=O [Example 49] | > 20
N#C[C@@H]1C[C@@H]2C(=O)NC[C@@H]2CCCC[C@H](Nc2nccc(C(F)(F)F)n2)C(=O)N2C[C@@H]3CCC[C@@H]3[C@H]2C(=O)N1 [Example 165] | < 0.1
CC(C)C[C@@H]1NC(=O)[C@@H](Cc2ccc(F)cc2)CCCC[C@@H]2CNC(=O)[C@@H]2C[C@@H](C#N)NC1=O [Example 42] | 1 to 20
CC(C)C[C@@H]1NC(=O)CCCCCC[C@H]2CNC(=O)[C@@H]2C[C@@H](C=O)NC1=O [Example 48] | 0.1 to 1
CC(C)(C)C(=O)N[C@H]1CCCC[C@H]2CNC(=O)[C@H]2C[C@@H](C#N)NC(=O)[C@@H]2[C@H]3CCC[C@H]3CN2C1=O [Example 70] | < 0.1
CC(C)C[C@@H]1NC(=O)[C@@H](NC(=O)OC(C)(C)C)CCC[C@@H]2CNC(=O)[C@@H]2C[C@@H](C=O)NC1=O [Example 16] | 0.1 to 1
N#C[C@@H]1C[C@H]2C(=O)NC[C@@H]2CCCCC(=O)N2C[C@@H]3CCC[C@@H]3[C@H]2C(=O)N1 [Example 26] | > 20
CC(C)C[C@H]1C(=O)N[C@H](C#N)C[C@@H]2C(=O)NC[C@@H]2CCCC[C@H](NC(=O)C(C)(C)C)C(=O)N1C [Example 57] | 0.1 to 1
CC1(C)[C@@H]2[C@H]3C(=O)N[C@H](C#N)C[C@@H]4C(=O)NC[C@@H]4CCCC[C@H](NC(=O)c4ccc(F)c(C(F)(F)F)c4)C(=O)N3C[C@@H]21 [Example 116] | < 0.1

Each molecule was assayed against MERS-CoV 3CLpro (Middle East respiratory syndrome-related coronavirus, UniProt K9N638) (assay: biochemical). Conditions: MERS IC50, 75 nM MERS-CoV 3CLpro, 6 μM peptide 1 substrate, 25° C., 1.5 hrs, pH 7.5.
Chain of MERS-CoV 3CLpro (K9N638 3248-3553 limits assumed): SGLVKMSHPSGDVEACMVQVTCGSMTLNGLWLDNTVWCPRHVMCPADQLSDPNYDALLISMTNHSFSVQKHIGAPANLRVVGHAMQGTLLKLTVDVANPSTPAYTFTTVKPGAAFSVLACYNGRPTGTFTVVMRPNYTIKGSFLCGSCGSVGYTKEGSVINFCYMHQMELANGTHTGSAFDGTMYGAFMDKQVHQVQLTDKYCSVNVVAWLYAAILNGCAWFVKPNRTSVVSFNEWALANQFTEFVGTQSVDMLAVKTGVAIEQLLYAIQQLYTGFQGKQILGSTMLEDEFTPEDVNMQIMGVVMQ

Structure (SMILES) | IC50 [µM]
CC(C)C[C@@H]1NC(=O)[C@@H](Cc2ccccc2)CCCC[C@H]2CNC(=O)[C@@H]2C[C@@H](C=O)NC1=O [Example 37] | 0.1 to 1
CC(C)C[C@@H]1NC(=O)CCCC[C@H]2CNC(=O)[C@H]2C[C@@H](C=O)NC1=O [Example 2] | > 20
CC1(C)[C@@H]2[C@H]3C(=O)N[C@H](C#N)C[C@@H]4C(=O)NC[C@@H]4CCCC[C@H](NC(=O)c4cc(C(F)(F)F)on4)C(=O)N3C[C@@H]21 [Example 153] | 0.1 to 1
CC(C)(C)OC(=O)N[C@H]1CC/C=C\[C@H]2CCNC(=O)[C@H]2C[C@@H](C#N)NC(=O)[C@@H]2[C@@H]3[C@H](CN2C1=O)C3(C)C [Example 114] | 0.1 to 1
CC1(C)[C@@H]2[C@H]3C(=O)N[C@H](C#N)C[C@@H]4C(=O)NC[C@@H]4CCCC[C@H](NC(=O)c4cc(Cl)ccc4Cl)C(=O)N3C[C@@H]21 [Example 133] | < 0.1
CC(C)(C)OC(=O)N[C@H]1COCCC[C@H]2CNC(=O)[C@H]2C[C@@H](C#N)NC(=O)[C@@H]2[C@@H]3[C@H](CN2C1=O)C3(C)C [Example 102] | 0.1 to 1
CC(C)(C)OC(=O)N[C@H]1CCC[C@H]2CNC(=O)[C@H]2C[C@@H](C#N)NC(=O)[C@@H]2[C@@H]3[C@H](CN2C(=O)C1)C3(C)C [Example 125] | > 20
Cc1nc(C(=O)N[C@H]2CCCC[C@H]3CNC(=O)[C@H]3C[C@@H](C#N)NC(=O)[C@@H]3[C@@H]4[C@H](CN3C2=O)C4(C)C)cs1 [Example 113] | < 0.1
CC(C)C[C@@H]1NC(=O)[C@@H](NC(=O)OC(C)(C)C)CCC[C@H]2CNC(=O)[C@H]2C[C@@H](C=O)NC1=O [Example 15] | 0.1 to 1
CC1(C)[C@@H]2[C@H]3C(=O)N[C@H](C#N)C[C@@H]4C(=O)NC[C@@H]4CCCC[C@H](NC(=O)C45CC(C(F)(F)F)(C4)C5)C(=O)N3C[C@@H]21 [Example 119] | < 0.1
CC1(C)C[C@H]2C(=O)N[C@H](C#N)C[C@@H]3C(=O)NC[C@@H]3CCCC[C@H](NC(=O)OC(C)(C)C)C(=O)N2C1 [Example 130] | 0.1 to 1
CC1(C)[C@@H]2[C@H]3C(=O)N[C@H](C#N)C[C@@H]4C(=O)NC[C@@H]4CCCC[C@H](NC(=O)OC4(C(F)(F)F)CCC4)C(=O)N3C[C@@H]21 [Example 152] | < 0.1
CC(C)C[C@@H]1NC(=O)CCCCC[C@H]2CCNC(=O)[C@@H]2C[C@@H](C=O)NC1=O [Example 34] | 1 to 20
CC(C)(C)C(=O)N[C@H]1C/C=C/[C@H]2CNC(=O)[C@H]2C[C@@H](C#N)NC(=O)[C@@H]2[C@@H]3[C@H](CN2C1=O)C3(C)C [Example 63] | 0.1 to 1
CC1(C)[C@@H]2[C@H]3C(=O)N[C@H](C#N)C[C@@H]4C(=O)NC[C@@H]4CCCC[C@H](NC(=O)CC4CCCC4)C(=O)N3C[C@@H]21 [Example 90] | 0.1 to 1
CC(C)C[C@@H]1NC(=O)[C@@H](OC(C)(C)C)CCC[C@H]2CNC(=O)[C@@H]2C[C@@H](C=O)NC1=O [Example 20] | > 20
CC(C)C[C@@H]1NC(=O)[C@@H](Cc2ccccc2)CCCCC[C@@H]2CNC(=O)[C@@H]2C[C@@H](C#N)NC1=O [Example 49] | > 20
N#C[C@@H]1C[C@@H]2C(=O)NC[C@@H]2CCCC[C@H](Nc2nccc(C(F)(F)F)n2)C(=O)N2C[C@@H]3CCC[C@@H]3[C@H]2C(=O)N1 [Example 165] | 0.1 to 1
CC(C)C[C@@H]1NC(=O)[C@@H](Cc2ccc(F)cc2)CCCC[C@@H]2CNC(=O)[C@@H]2C[C@@H](C#N)NC1=O [Example 42] | 1 to 20
CC(C)C[C@@H]1NC(=O)CCCCCC[C@H]2CNC(=O)[C@@H]2C[C@@H](C=O)NC1=O [Example 48] | 0.1 to 1
CC(C)(C)C(=O)N[C@H]1CCCC[C@H]2CNC(=O)[C@H]2C[C@@H](C#N)NC(=O)[C@@H]2[C@H]3CCC[C@H]3CN2C1=O [Example 70] | 0.1 to 1
CC(C)C[C@@H]1NC(=O)[C@@H](NC(=O)OC(C)(C)C)CCC[C@@H]2CNC(=O)[C@@H]2C[C@@H](C=O)NC1=O [Example 16] | 1 to 20
N#C[C@@H]1C[C@H]2C(=O)NC[C@@H]2CCCCC(=O)N2C[C@@H]3CCC[C@@H]3[C@H]2C(=O)N1 [Example 26] | > 20
CC(C)C[C@H]1C(=O)N[C@H](C#N)C[C@@H]2C(=O)NC[C@@H]2CCCC[C@H](NC(=O)C(C)(C)C)C(=O)N1C [Example 57] | 1 to 20
CC1(C)[C@@H]2[C@H]3C(=O)N[C@H](C#N)C[C@@H]4C(=O)NC[C@@H]4CCCC[C@H](NC(=O)c4ccc(F)c(C(F)(F)F)c4)C(=O)N3C[C@@H]21 [Example 116] | < 0.1
